The test system of experiment [1] is GPx-1. The settings on record: through interacting with selenocystein by forming a stable gold-Sec complex; cited from earlier work. The source says: Glutathione peroxidase-1 (GPx-1), a crucial antioxidant selenoenzyme in mammalian cells, is selected as a model drug target for tumor treatment. Suppression of intracellular GPx-1 activity induces the accumulation of hydrogen peroxide (reactive oxygen species, ROS), which would render tumor cells susceptible to ROS-induced apoptosis, [20].

In experiment [2] the test system is GPx-1. As to the kind of experiment: GPx-1 enzyme activity suppression in buffer. Format: biochemical, bovine. The settings on record: buffer, Au dose of 400 μM, 10 min, GPx Activity Colorimetric Assay Kit, NADPH absorbance at 340 nm. An excerpt: The peptides (N2H-CCYGGPEEEEEVG-COOH (named P1), NH2-CCYGGPDDDEDVG-COOH (named P2) and NH2-CCYGGPEEVEEVG-COOH (named P3)) were chemically synthesized by a solid phase method (China Peptides Co. Ltd, Purity: 98%). Hydrogen tetrachloroaurate (III) (HAuCl4·4H2O) was purchased from Sinopharm Chemical Reagent Co. Ltd. Sodium hydroxide (NaOH), nitric acid (HNO3), hydrochloric acid (HCl) and hydrogen peroxide (H2O2) were purchased from Beijing Chemical Reagent Co., China. Human non-small cell lung carcinoma cells (A549 cells), Henrietta Lacks strain of cancer cells (Hela cells) and human colon adenocarcinoma cells (HCT-8 cells) were from Cancer Institute and Hospital, Chinese Academy of Medical Sciences. Fetal bovine serum (FBS) and trypsin-EDTA were obtained from Gibco, USA. Penicillin-streptomycin solution, cell culture medium DMEM and RPMI 1640 were purchased from Hyclone. Hoechst 33342, LysoTracker®Green DND-26, and CM-H2DCFDA were from Molecular Probes, USA. NucView™ 488 Caspase-3 Assay Kit was bought from Biotium, USA. 5,5′,6,6′-tetrachloro-1,1′,3,3′-tetraethylbenzimidazolocarbocyanine iodide (JC-1), cell lysis buffer for Western and IP, phenylmethanesulfonyl fluoride (PMSF) and BCA Protein Assay Kit were obtained from Beyotime Institute of Biotechnology, China. Protease inhibitor cocktail tablets were from Roche Diagnostics, GmbH, Mannheim, Germany. Cell counting kit-8 (CCK-8) reagents and Annexin V-FITC/Propidium (PI) Apoptosis Detection Kit were purchased from Dojindo Laboratories, Japan. GPx from bovine erythrocytes […] was provided by Sigma Aldrich, USA. GPx Activity Colorimetric Assay Kit was provided by Biovision, USA. Anti-GPx-1 antibody was offered by Abcam, UK. PARP antibody, caspase-3 antibody and β-actin antibody were offered by Cell Signaling Technology, USA. Amicon ultra centrifugal filter devices (Merck Millipore, MWCO: 10 kDa) were used for purification steps. Ultrapure Millipore (Mini-Q) water (18.2 MΩ) was used throughout the experiments. […]
Pure GPx (lyophilized powder, ≥300 units/mg protein) were diluted by GPx sample buffer and incubated with peptide-Au clusters (Au25P1_9, Au25P2_9 and Au25P3_9) at a series of Au dose (0, 25, 100, 400 μM) for 10 min, respectively. […] The GPx activity of untreated samples was set as 100%, and that of peptide-Au clusters treated samples were expressed as a relative percentage of untreated ones.
Figure S12. Peptide-Au clusters treated GPx-1 activity measured in buffer solution. The decrease in NADPH absorbance measured at 340 nm during the oxidation of NADPH to NADP is the indicative of GPx activity,^1, 2 which is in a dose dependent manner in tube experiments when treated with serial doses of peptide-Au clusters.

The test system of a further experiment is A549 cells. As to the kind of experiment: Cell viability assay (CCK-8), A549. The class given is cell-based, human. The settings on record: A549, Au dose of 800 μM, 48 h, CCK-8; mean from three independent experiments. As to the method: Briefly, cells were prior cultured on 96-well plates (at the density of 5 × 10^3 cells/well) for 24 h to allow cells attachment. The cells were treated with different doses of these free peptides (0, 1, 4, 16, 64, 256, 1024 µM) and peptide-Au clusters (0, 50, 100, 200, 400, 800 µM in Au dose) for 48 h, respectively. The cells were washed three times with PBS and then incubated with fresh growth medium containing 10% (v/v) CCK-8 reagent for 1 h at 37 °C for cell viability assay. The absorbance was measured at 450 nm by using a microplate reader (SpectraMAX M2, Sunnyvale, California). Cell viability of untreated cells was set as 100%, and that of treated cells were expressed as a relative percentage of untreated cells. All data were shown as mean percentages ± standard deviation from three independent experiments.

Regarding `CC(=O)OC[C@H]1O[C@@H]([S-])[C@H](OC(C)=O)[C@@H](OC(C)=O)[C@@H]1OC(C)=O.CCP(CC)CC.[Au+]` [auranofin], the “inhibition of GPx-1 activity” value in the experiment on GPx-1 [1] is recorded as “can inhibit GPx-1 activity”.
In the case of “CCYGGPEEVEEVG [Au25P3_9, Au25 cluster coated by nine P3 peptides (…)]”, the “GPx-1 activity (relative to untreated = 100%)” value with GPx-1 [2] is reported as 29%. Also, in the experiment on A549 cells, the “cell viability (relative to untreated = 100%)” value came to 71%.
On to “CCYGGPDDDEDVG [Au25P2_9, Au25 cluster coated by nine P2 peptides (…)]”, for which the “GPx-1 activity (relative to untreated = 100%)” value with GPx-1 [2] is reported as 16%. Moreover, the “cell viability (relative to untreated = 100%)” value with A549 cells came to 53%.
`O=C(O)CC([S-])C(=O)O.[Au+]` (stereo not drawn) [gold thiomalate]: in the experiment on GPx-1 [1], the “inhibition of GPx-1 activity” value is “can inhibit GPx-1 activity”.

The values are drawn from article PMC5428013, “Peptide-Au Clusters Induced Tumor Cells Apoptosis via Targeting Glutathione Peroxidase-1: The Molecular Dynamics Assisted Experimental Studies” (Scientific Reports, 2017).
